Measured values reported in ChEMBL document CHEMBL1141946, “Inhibitors of phenylethanolamine N-methyltransferase devoid of alpha2-adrenoceptor affinity” (Bioorg Med Chem Lett, 2005).
pKi: −log10 of the molar value.

Target: T1, Adrenergic receptor alpha-2 (Homo sapiens, UniProt P08913+P18825+P18089)
T1 sequence (P08913 whole entry): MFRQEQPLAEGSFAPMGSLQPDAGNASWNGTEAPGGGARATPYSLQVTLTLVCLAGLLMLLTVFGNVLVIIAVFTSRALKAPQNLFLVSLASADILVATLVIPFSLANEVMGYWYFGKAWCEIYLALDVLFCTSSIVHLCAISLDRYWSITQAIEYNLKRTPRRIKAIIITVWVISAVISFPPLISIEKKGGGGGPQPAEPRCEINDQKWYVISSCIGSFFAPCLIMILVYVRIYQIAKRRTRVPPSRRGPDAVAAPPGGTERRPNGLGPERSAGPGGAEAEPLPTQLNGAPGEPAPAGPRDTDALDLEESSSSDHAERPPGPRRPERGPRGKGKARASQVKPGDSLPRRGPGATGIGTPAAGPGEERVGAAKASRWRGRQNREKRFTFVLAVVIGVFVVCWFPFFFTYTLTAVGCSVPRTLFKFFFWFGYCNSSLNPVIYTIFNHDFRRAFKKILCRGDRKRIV
T1 sequence (P18825 whole entry): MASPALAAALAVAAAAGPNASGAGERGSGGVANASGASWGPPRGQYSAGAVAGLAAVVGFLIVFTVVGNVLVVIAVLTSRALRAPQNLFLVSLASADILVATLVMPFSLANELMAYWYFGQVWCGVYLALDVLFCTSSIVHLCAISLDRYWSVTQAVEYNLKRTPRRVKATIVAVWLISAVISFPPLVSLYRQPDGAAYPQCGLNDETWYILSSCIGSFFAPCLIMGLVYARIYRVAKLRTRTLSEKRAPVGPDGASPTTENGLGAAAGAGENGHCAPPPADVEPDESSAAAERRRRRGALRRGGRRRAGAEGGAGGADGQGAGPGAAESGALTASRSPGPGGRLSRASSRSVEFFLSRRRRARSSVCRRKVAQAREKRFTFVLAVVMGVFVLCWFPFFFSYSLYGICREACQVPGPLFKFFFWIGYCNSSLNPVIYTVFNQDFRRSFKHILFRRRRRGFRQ
T1 sequence (P18089 whole entry): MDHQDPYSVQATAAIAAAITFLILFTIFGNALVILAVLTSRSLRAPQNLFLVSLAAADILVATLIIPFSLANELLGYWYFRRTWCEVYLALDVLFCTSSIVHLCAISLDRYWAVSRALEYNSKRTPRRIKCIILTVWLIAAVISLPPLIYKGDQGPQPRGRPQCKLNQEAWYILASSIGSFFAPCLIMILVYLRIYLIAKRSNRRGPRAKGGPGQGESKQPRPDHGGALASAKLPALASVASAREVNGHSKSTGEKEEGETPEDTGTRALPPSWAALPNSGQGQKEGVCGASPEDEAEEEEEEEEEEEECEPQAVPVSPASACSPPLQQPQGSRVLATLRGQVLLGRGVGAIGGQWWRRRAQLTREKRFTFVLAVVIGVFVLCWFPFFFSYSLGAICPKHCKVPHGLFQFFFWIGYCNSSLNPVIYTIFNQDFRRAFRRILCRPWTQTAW
Assay: Displacement of [3H]clonidine from Adrenergic alpha-2 receptor
Format: protein assay

Compound `CC(C)C1Cc2ccc(Br)cc2CN1` (centres undefined) has a Ki of 3.9 µM.

Compound `NS(=O)(=O)c1ccc2c(c1)CNCC2` has a pKi (read-out: Ki) of 4.00.

For `Ic1ccc2c(c1)CNCC2`, the Ki was 0.22 µM.

Compound `Clc1ccc2c(c1Cl)CNCC2` has a Ki of 0.021 µM.

`NS(=O)(=O)c1ccc2c(c1)CNC(CO)C2` (centres undefined) gave a Ki of 1400 µM.

Work on `FC(F)(F)C1Cc2ccccc2CN1` (centres undefined) yielded a Ki of 400 µM.

`N#Cc1ccc2c(c1)CNC(C(F)(F)F)C2` (racemic) gave a Ki of 2900 µM.

For `O=[N+]([O-])c1ccc2c(c1)CNC(C(F)(F)F)C2` (racemic), the Ki was 1400 µM.

In the case of `CS(=O)(=O)c1ccc2c(c1)CNC(C(F)(F)F)C2` (racemic), the Ki was 3900 µM.

`FC(F)(F)C1Cc2ccc(Br)cc2CN1` (racemic) showed a Ki greater than 1000 µM.

In the case of `FC(F)(F)C1Cc2ccc(Cl)cc2CN1` (racemic), the Ki was greater than 1000 µM.

`CC(C)C1Cc2ccc([N+](=O)[O-])cc2CN1` (racemic) was tested, and the Ki was 36 µM.

In the case of `FC(F)(F)c1ccc2c(c1)CNC(C(F)(F)F)C2` (racemic), the Ki was greater than 1000 µM.

`CCNS(=O)(=O)c1ccc2c(c1)CNC(C(F)(F)F)C2` (racemic) showed a Ki greater than 1000 µM.

`CC1Cc2ccc(Br)cc2CN1` (racemic) showed a Ki of 1.1 µM.

For `NS(=O)(=O)c1ccc2c(c1)CNC(C(F)(F)F)C2` (racemic), the Ki was greater than 1000 µM.

For `FC(F)(F)C1Cc2ccc(I)cc2CN1` (racemic), the Ki was greater than 1000 µM.

Work on `CCC1Cc2ccc(Br)cc2CN1` (racemic) yielded a Ki of 1.2 µM.

`CCC1Cc2ccc([N+](=O)[O-])cc2CN1` (racemic) was tested, and the Ki was 28 µM.
